pIC50: −log10 of the molar value.
tested on: phosphorylation of Serine 473 in Akt; assay: In Vitro Phospho-Ser473 Akt Assay in MDA-MB-468 cells; format: cell-based; conditions: Homo sapiens, MDA-MB-468, read-out: IC50 values against mTOR, phospho-Ser473 Akt assay, MDA-MB-468 cells

Row | SMILES | pIC50
1 | COc1ccc(-c2ccc3c(N4CCOC[C@@H]4C)nc(N4CCOC[C@@H]4C)nc3n2)cc1F [Example 1bs] | > 7.00
2 | C[C@H]1COCCN1c1nc(N2CCOC[C@@H]2C)c2ccc(-c3ccoc3)nc2n1 [Example 1bv] | > 7.00
3 | C[C@@H]1CN(c2nc(N3CCOC[C@@H]3C)c3ccc(-c4cccc(CO)c4)nc3n2)C[C@H](C)O1 [Example 1bx] | > 6.52
4 | C[C@@H]1CN(c2nc(N3CCOC[C@@H]3C)c3ccc(-c4ccc(CO)cc4)nc3n2)C[C@H](C)O1 [Example 1by] | > 6.52
5 | C[C@@H]1CN(c2nc(N3CCOC[C@@H]3C)c3ccc(-c4cccc(O)c4)nc3n2)C[C@H](C)O1 [Example 1bz] | > 7.00
6 | C[C@@H]1CN(c2nc(N3CCOC[C@@H]3C)c3ccc(-c4ccoc4)nc3n2)C[C@H](C)O1 [Example 1cf] | > 6.52
7 | C[C@@H]1CN(c2nc(N3CCOC[C@@H]3C)c3ccc(-c4ccc(O)cc4)nc3n2)C[C@H](C)O1 [Example 1cg] | > 7.00
8 | C[C@@H]1CN(c2nc(N3CCOC[C@@H]3C)c3ccc(-c4ccc([N+](=O)[O-])cc4)nc3n2)C[C@H](C)O1 [Example 1ci] | > 6.52
9 | COc1ccc(-c2ccc3c(N4CCOC[C@@H]4C)nc(N4C[C@@H](C)O[C@@H](C)C4)nc3n2)cc1 [Example 1cj] | > 6.52
10 | CNC(=O)c1ccc(-c2ccc3c(N4CCOC[C@@H]4C)nc(N4CCOC[C@@H]4C)nc3n2)cc1F [Example 1cv] | > 6.52
11 | C[C@H]1COCCN1c1nc(N2CCOC[C@@H]2C)c2ccc(-c3ccccc3)nc2n1 [Example 1d] | > 7.00
12 | C[C@H]1COCCN1c1nc(N2CCOC[C@@H]2C)c2ccc(-c3ccc(O)cc3)nc2n1 [Example 1e] | > 7.00
13 | Cc1ccc(-c2ccc3c(N4CCOC[C@@H]4C)nc(N4CCOC[C@@H]4C)nc3n2)cc1 [Example 1f] | > 7.00
14 | C[C@H]1COCCN1c1nc(N2CCOC[C@@H]2C)c2ccc(-c3ccc(CO)cc3)nc2n1 [Example 1g] | > 7.00
15 | C[C@H]1COCCN1c1nc(N2CCOC[C@@H]2C)c2ccc(-c3cccc(O)c3)nc2n1 [Example 1h] | > 7.00
16 | C[C@H]1COCCN1c1nc(N2CCOC[C@@H]2C)c2ccc(-c3cccc(CO)c3)nc2n1 [Example 1i] | > 7.00
17 | C[C@@H]1CN(c2nc(N3CCOC[C@@H]3C)c3ccc(-c4ccsc4)nc3n2)C[C@H](C)O1 [Example 1k] | > 7.00
18 | COc1ccc(-c2ccc3c(N4CCOC[C@@H]4C)nc(N4CCOCC4)nc3n2)cc1CO [Example 1l] | > 7.00
19 | C[C@H]1COCCN1c1nc(N2CCOC[C@@H]2C)c2ccc(-c3cccnc3F)nc2n1 [Example 1p] | > 6.52

Row | SMILES | pIC50
20 | C[C@H]1COCCN1c1nc(N2CCOC[C@@H]2C)c2ccc(-c3ccc(N4CCOCC4)nc3)nc2n1 [Example 1q] | > 6.52
21 | C[C@H]1COCCN1c1nc(N2CCOC[C@@H]2C)c2ccc(-c3cnn(C)c3)nc2n1 [Example 1s] | > 7.00
22 | C[C@H]1COCCN1c1nc(N2CCOC[C@@H]2C)c2ccc(-c3ccc(N)nc3)nc2n1 [Example 1u] | > 7.00
23 | C[C@H]1COCCN1c1nc(N2CCCCC2CO)nc2nc(-c3cccc(C(N)=O)c3)ccc12 (stereo partly shown) [Example 2f] | > 6.52
24 | C[C@H]1COCCN1c1nc(N2CCCCC2CO)nc2nc(-c3ccc(N)nc3)ccc12 (stereo partly shown) [Example 2g] | > 6.52
25 | C[C@H]1COCCN1c1nc(N2CCOC[C@@H]2C)c2ccc(-c3cccc(C(=O)Nc4cc[nH]n4)c3)nc2n1 [Example 3a] | > 6.52
26 | CNC(=O)c1cc(-c2ccc3c(N4CCOC[C@@H]4C)nc(N4CCOC[C@@H]4C)nc3n2)ccc1OC [Example 3ad] | > 7.00
27 | C[C@H]1COCCN1c1nc(N2CCOC[C@@H]2C)c2ccc(-c3cccc(C(=O)NCCF)c3)nc2n1 [Example 3e] | > 6.52
28 | C[C@H]1COCCN1c1nc(N2CCOC[C@@H]2C)c2ccc(-c3cccc(C(=O)NC4CCOCC4)c3)nc2n1 [Example 3i] | > 7.00
29 | C[C@H]1COCCN1c1nc(N2CCOC[C@@H]2C)c2ccc(-c3cccc(C(=O)NCC(F)F)c3)nc2n1 [Example 3l] | > 7.00
30 | CON(C)C(=O)c1cc(-c2ccc3c(N4CCOC[C@@H]4C)nc(N4CCOC[C@@H]4C)nc3n2)ccc1F [Example 3y] | > 7.00
31 | CNCc1ccc(-c2ccc3c(N4CCOC[C@@H]4C)nc(N4CCOC[C@@H]4C)nc3n2)cc1 [Example 4a] | > 7.00
32 | COCCNCc1cc(-c2ccc3c(N4CCOC[C@@H]4C)nc(N4CCOC[C@@H]4C)nc3n2)ccc1F [Example 4aa] | > 6.52
33 | C[C@H]1COCCN1c1nc(N2CCOC[C@@H]2C)c2ccc(-c3ccc(F)c(CNCCO)c3)nc2n1 [Example 4ac] | > 7.00
34 | C[C@H]1COCCN1c1nc(N2CCOC[C@@H]2C)c2ccc(-c3ccc(F)c(CN4CC[C@@H](O)C4)c3)nc2n1 [Example 4ad] | > 6.52
35 | C[C@H]1COCCN1c1nc(N2CCOC[C@@H]2C)c2ccc(-c3ccc(F)c(CN(C)C)c3)nc2n1 [Example 4af] | > 7.00
36 | C[C@H]1COCCN1c1nc(N2CCOC[C@@H]2C)c2ccc(-c3ccc(F)c(CN4CCC[C@@H](O)C4)c3)nc2n1 [Example 4ah] | > 6.52
37 | CC(C)N(C)Cc1cc(-c2ccc3c(N4CCOC[C@@H]4C)nc(N4CCOC[C@@H]4C)nc3n2)ccc1F [Example 4ai] | > 7.00
38 | C[C@H]1COCCN1c1nc(N2CCOC[C@@H]2C)c2ccc(-c3ccc(F)c(CN4CC[C@H](O)C4)c3)nc2n1 [Example 4ak] | > 7.00

Row | SMILES | pIC50
39 | COc1ccc(-c2ccc3c(N4CCOC[C@@H]4C)nc(N4CCOC[C@@H]4C)nc3n2)cc1CNC(C)C [Example 4am] | > 7.00
40 | COc1ccc(-c2ccc3c(N4CCOC[C@@H]4C)nc(N4CCOC[C@@H]4C)nc3n2)cc1CNC1CCCC1 [Example 4an] | > 6.52
41 | COc1ccc(-c2ccc3c(N4CCOC[C@@H]4C)nc(N4CCOC[C@@H]4C)nc3n2)cc1CNC1CCCCC1 [Example 4ao] | > 7.00
42 | COc1ccc(-c2ccc3c(N4CCOC[C@@H]4C)nc(N4CCOC[C@@H]4C)nc3n2)cc1CNCc1cccs1 [Example 4ap] | > 6.52
43 | COc1ccc(-c2ccc3c(N4CCOC[C@@H]4C)nc(N4CCOC[C@@H]4C)nc3n2)cc1CNC1CCOCC1 [Example 4aq] | > 7.00
44 | COc1ccc(-c2ccc3c(N4CCOC[C@@H]4C)nc(N4CCOC[C@@H]4C)nc3n2)cc1CNCCC(C)(C)C [Example 4as] | > 7.00
45 | COc1ccc(-c2ccc3c(N4CCOC[C@@H]4C)nc(N4CCOC[C@@H]4C)nc3n2)cc1CNCCC(C)C [Example 4at] | > 7.00
46 | COc1ccc(-c2ccc3c(N4CCOC[C@@H]4C)nc(N4CCOC[C@@H]4C)nc3n2)cc1CNC(C)CC(C)C (stereo partly shown) [Example 4au] | > 7.00
47 | CCN(CC)CCCNCc1cc(-c2ccc3c(N4CCOC[C@@H]4C)nc(N4CCOC[C@@H]4C)nc3n2)ccc1OC [Example 4av] | > 6.52
48 | COc1ccc(-c2ccc3c(N4CCOC[C@@H]4C)nc(N4CCOC[C@@H]4C)nc3n2)cc1CNC1CCCCC1C (stereo partly shown) [Example 4aw] | > 7.00
49 | COc1ccc(-c2ccc3c(N4CCOC[C@@H]4C)nc(N4CCOC[C@@H]4C)nc3n2)cc1CNCC1CC1 [Example 4ax] | > 7.00
50 | CCCCNCc1cc(-c2ccc3c(N4CCOC[C@@H]4C)nc(N4CCOC[C@@H]4C)nc3n2)ccc1OC [Example 4ay] | > 7.00
51 | COc1ccc(-c2ccc3c(N4CCOC[C@@H]4C)nc(N4CCOC[C@@H]4C)nc3n2)cc1CNCC(C)C [Example 4az] | > 7.00
52 | C[C@H]1COCCN1c1nc(N2CCOC[C@@H]2C)c2ccc(-c3ccc(CN)cc3)nc2n1 [Example 4b] | > 7.00
53 | COc1ccc(-c2ccc3c(N4CCOC[C@@H]4C)nc(N4CCOC[C@@H]4C)nc3n2)cc1CNCCO [Example 4ba] | > 7.00
54 | COCCNCc1cc(-c2ccc3c(N4CCOC[C@@H]4C)nc(N4CCOC[C@@H]4C)nc3n2)ccc1OC [Example 4bb] | > 7.00
55 | COc1ccc(-c2ccc3c(N4CCOC[C@@H]4C)nc(N4CCOC[C@@H]4C)nc3n2)cc1CNC1CCC(C)CC1 (stereo partly shown) [Example 4bc] | > 7.00
56 | COc1ccc(CCNCc2cc(-c3ccc4c(N5CCOC[C@@H]5C)nc(N5CCOC[C@@H]5C)nc4n3)ccc2OC)cc1 [Example 4bd] | > 7.00
57 | COc1ccc(-c2ccc3c(N4CCOC[C@@H]4C)nc(N4CCOC[C@@H]4C)nc3n2)cc1CNCCc1cnc[nH]1 [Example 4be] | > 7.00

same assay, conditions: Homo sapiens, MDA-MB-468, read-out: IC50 values against mTOR, phospho-Ser473 Akt assay, MDA-MB-468 cells, upper bound

Row | SMILES | pIC50
58 | C[C@H]1COCCN1c1nc(N2CCOC[C@@H]2C)c2ccc(-c3cccnc3)nc2n1 [Example 1bu] | > 6.00
59 | C[C@@H]1CN(c2nc(N3CCOC[C@@H]3C)c3ccc(-c4ccncc4)nc3n2)C[C@H](C)O1 [Example 1ce] | > 6.00
60 | C[C@H]1COCCN1c1nc(N2CCOC[C@@H]2C)c2ccc(-c3ccc4nc[nH]c(=O)c4c3)nc2n1 [Example 1cl] | > 6.00
61 | C[C@H]1COCCN1c1nc(N2CCCC(CO)C2)nc2nc(-c3cccc(C(N)=O)c3)ccc12 (stereo partly shown) [Example 2d] | > 6.00
62 | C[C@H]1COCCN1c1nc(N2CCC(c3ccncc3)CC2)nc2nc(-c3ccc(N)nc3)ccc12 [Example 2e] | > 6.00
63 | C[C@H]1COCCN1c1nc(N2CCC(CO)CC2)nc2nc(-c3cccc(C(N)=O)c3)ccc12 [Example 2h] | > 6.00
64 | C[C@H]1COCCN1c1nc(N2CCC(CCO)CC2)nc2nc(-c3ccc(N)nc3)ccc12 [Example 2j] | > 6.00
65 | C[C@H]1COCCN1c1nc(N2CCOC[C@@H]2C)c2ccc(-c3cccc(C(=O)NCC(F)(F)F)c3)nc2n1 [Example 3f] | > 6.00
66 | C[C@H]1COCCN1c1nc(N2CCOC[C@@H]2C)c2ccc(-c3cccc(C(=O)N4CC[C@@H](O)C4)c3)nc2n1 [Example 3g] | > 6.00
67 | CCN(C)C(=O)c1cc(-c2ccc3c(N4CCOC[C@@H]4C)nc(N4CCOC[C@@H]4C)nc3n2)ccc1OC [Example 3u] | > 6.00
68 | C[C@H]1COCCN1c1nc(N2CCOC[C@@H]2C)c2ccc(-c3ccc(F)c(CNCCF)c3)nc2n1 [Example 4ab] | > 6.00
69 | COCCN(C)Cc1cc(-c2ccc3c(N4CCOC[C@@H]4C)nc(N4CCOC[C@@H]4C)nc3n2)ccc1F [Example 4aj] | > 6.00

same assay, conditions: Homo sapiens; phospho-Ser473 Akt assay, MDA-MB-468 cells, upper bound; read-out: IC50 values against mTOR

Row | pIC50 | SMILES
70 | > 6.00 | C[C@H]1COCCN1c1nc(N2CCOC[C@@H]2C)c2ccc(-c3cccc(Cl)n3)nc2n1 [Example 1v]

Source: patent US9102670B2, “Pyrido-, pyrazo- and pyrimido-pyrimidine derivatives as mTOR inhibitors” (KuDOS Pharmaceuticals Limited, priority 2006, dated 2015)
